Results reported in publication PMC3026800, “Mechanism of Inhibition of Enveloped Virus Membrane Fusion by the Antiviral Drug Arbidol” (PLoS ONE, 2011).

Tested on: HApp (pseudoparticles harbouring the influenza hemagglutinin)
Format: cell-based
Details: 11.3 µM arbidol

CCOC(=O)c1c(CSc2ccccc2)n(C)c2cc(Br)c(O)c(CN(C)C)c12.Cl [Arb, 1H-indole-3-carboxylic acid, 6-bromo-4-[(dimethylamino)-methyl]-5-hydroxy-1-methyl-2-[(phenylthio)methyl]-, ethyl ester, monohydrochloride]
Sensitivity of pseudoparticle entry to arbidol: sensitive
